From ChEMBL document CHEMBL1909046, “DrugMatrix in vitro pharmacology data”

Columns and labels:
[1] = DRUGMATRIX: Leukotriene, BLT (LTB4) radioligand binding (ligand: [3H]LTB4); format: cell membranes, Membrane; conditions: u-937; Not Active = under 50% inhibition at 10 µM
[2] = molecular target: T1, 5-hydroxytryptamine receptor 2C (Homo sapiens, UniProt P28335); assay: DRUGMATRIX: Serotonin (5-Hydroxytryptamine) 5-HT2C radioligand binding (ligand: [3H] Mesulergine); format: cell membranes, CHO-K1, Membrane; conditions: cho-k1; Not Active = under 50% inhibition at 10 µM
T1 sequence (P28335 whole entry): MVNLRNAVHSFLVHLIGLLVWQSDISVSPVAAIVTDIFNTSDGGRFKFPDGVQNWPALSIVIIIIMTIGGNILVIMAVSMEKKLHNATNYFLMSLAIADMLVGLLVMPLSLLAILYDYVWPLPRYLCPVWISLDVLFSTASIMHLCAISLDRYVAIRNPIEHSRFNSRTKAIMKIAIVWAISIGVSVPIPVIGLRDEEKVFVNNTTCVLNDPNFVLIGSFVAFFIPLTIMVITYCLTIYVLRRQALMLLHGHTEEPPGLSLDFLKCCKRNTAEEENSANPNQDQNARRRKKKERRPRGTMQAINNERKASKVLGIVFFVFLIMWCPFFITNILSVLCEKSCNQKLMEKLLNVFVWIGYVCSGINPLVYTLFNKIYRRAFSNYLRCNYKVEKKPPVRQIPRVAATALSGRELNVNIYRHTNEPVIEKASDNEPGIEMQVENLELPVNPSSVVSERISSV

[3] = molecular target: Platelet-activating factor receptor (Homo sapiens, UniProt P25105); format: tissue-based; further: in other assays of this panel Not Active means under 50% inhibition at 10 µM
Sequence of Platelet-activating factor receptor (P25105 whole entry): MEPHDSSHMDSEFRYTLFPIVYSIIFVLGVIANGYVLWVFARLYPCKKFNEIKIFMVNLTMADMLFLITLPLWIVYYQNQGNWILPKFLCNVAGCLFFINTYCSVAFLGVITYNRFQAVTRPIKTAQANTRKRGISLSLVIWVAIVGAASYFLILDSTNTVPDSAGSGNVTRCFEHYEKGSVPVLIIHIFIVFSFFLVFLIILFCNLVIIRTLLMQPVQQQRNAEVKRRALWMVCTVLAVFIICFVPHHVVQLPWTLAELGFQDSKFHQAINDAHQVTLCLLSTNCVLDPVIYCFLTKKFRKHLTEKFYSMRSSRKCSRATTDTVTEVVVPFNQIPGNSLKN

Cytochrome P450 2A6 = molecular target: T2, Cytochrome P450 2A6 (Homo sapiens, UniProt P11509); conditions: bti-tn-5b1-4; further: in other assays of this panel Not Active means under 50% inhibition at 10 µM
T2 sequence (P11509 whole entry): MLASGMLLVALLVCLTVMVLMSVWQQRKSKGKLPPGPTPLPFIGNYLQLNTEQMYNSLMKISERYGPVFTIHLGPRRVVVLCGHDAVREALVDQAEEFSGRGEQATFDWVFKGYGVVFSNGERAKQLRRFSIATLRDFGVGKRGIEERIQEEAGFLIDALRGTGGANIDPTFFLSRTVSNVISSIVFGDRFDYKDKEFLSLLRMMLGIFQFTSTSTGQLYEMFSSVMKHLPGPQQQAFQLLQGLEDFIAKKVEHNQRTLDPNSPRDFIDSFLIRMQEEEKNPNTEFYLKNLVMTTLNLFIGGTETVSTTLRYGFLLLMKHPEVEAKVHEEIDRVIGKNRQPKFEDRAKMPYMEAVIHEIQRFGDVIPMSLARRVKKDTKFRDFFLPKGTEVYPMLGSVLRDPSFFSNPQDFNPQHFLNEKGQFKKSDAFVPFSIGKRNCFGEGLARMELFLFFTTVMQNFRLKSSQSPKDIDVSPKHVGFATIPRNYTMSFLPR

[4] = DRUGMATRIX: Atrial Natriuretic Factor (ANF) radioligand binding (ligand: [125I] ANF (rat)); format: cell membranes, Cavia porcellus, Dunkin-Hartley, Adrenal gland, Membrane; conditions: Not Active = under 50% inhibition at 10 µM
Cytochrome P450 2D6 = Cytochrome P450 2D6 (Homo sapiens, UniProt P10635); conditions: bti-tn-5b1-4; further: in other assays of this panel Not Active means under 50% inhibition at 10 µM
Sequence of Cytochrome P450 2D6 (P10635 whole entry): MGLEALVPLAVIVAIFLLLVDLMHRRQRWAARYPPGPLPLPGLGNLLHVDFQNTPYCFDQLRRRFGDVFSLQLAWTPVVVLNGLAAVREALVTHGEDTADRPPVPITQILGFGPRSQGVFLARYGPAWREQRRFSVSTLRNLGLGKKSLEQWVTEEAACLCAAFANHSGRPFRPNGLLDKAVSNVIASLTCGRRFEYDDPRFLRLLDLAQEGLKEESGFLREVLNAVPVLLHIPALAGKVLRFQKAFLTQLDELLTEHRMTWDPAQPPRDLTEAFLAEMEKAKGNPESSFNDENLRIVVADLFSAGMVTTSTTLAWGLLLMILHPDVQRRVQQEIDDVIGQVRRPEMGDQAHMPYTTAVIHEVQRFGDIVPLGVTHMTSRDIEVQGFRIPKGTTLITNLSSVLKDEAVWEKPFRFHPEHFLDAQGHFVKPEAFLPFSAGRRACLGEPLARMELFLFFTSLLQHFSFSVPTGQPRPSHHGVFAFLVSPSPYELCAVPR

[5] = molecular target: T3, Muscarinic acetylcholine receptor M4 (Homo sapiens, UniProt P08173); format: cell membranes, CHO-K1, Membrane; conditions: cho-k1; further: in other assays of this panel Not Active means under 50% inhibition at 10 µM
T3 sequence (P08173 whole entry): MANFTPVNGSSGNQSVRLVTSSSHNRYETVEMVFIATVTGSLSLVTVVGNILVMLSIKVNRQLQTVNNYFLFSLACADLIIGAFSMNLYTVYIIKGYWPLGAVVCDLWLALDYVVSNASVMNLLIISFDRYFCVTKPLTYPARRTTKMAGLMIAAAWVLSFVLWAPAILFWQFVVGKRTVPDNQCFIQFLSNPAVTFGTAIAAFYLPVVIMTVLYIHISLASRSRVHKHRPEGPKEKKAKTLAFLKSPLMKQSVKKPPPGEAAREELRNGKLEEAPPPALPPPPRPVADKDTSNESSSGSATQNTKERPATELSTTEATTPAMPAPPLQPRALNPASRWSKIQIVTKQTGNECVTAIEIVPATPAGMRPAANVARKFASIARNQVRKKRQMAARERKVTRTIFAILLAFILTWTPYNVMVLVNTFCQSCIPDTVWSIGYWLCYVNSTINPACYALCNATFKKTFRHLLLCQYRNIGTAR

O=C(c1ccccc1C(F)(F)F)N1CCC(Cc2ccccc2)CC1
Not Active: IC50 [1] | Ki [1] | IC50 [2] | IC50 [3] | IC50 (Cytochrome P450 2A6) | Ki (Cytochrome P450 2A6) | IC50 [4] | Ki [4] | IC50 (Cytochrome P450 2D6) | Ki (Cytochrome P450 2D6) | IC50 [5]

O=C/C=C/c1ccccc1
Not Active: IC50 [1] | Ki [1] | IC50 [2] | IC50 [3] | IC50 (Cytochrome P450 2A6) | Ki (Cytochrome P450 2A6) | IC50 [4] | Ki [4] | IC50 (Cytochrome P450 2D6) | Ki (Cytochrome P450 2D6) | IC50 [5]

Nc1ccc2c3c(cccc13)C(=O)NC2=O
Not Active: IC50 [1] | Ki [1] | IC50 [2] | IC50 [3] | IC50 (Cytochrome P450 2A6) | Ki (Cytochrome P450 2A6) | IC50 [4] | Ki [4] | IC50 (Cytochrome P450 2D6) | Ki (Cytochrome P450 2D6) | IC50 [5]

COc1ccc(C(=O)N2CCCC2=O)cc1
Not Active: IC50 [1] | Ki [1] | IC50 [2] | IC50 [3] | IC50 (Cytochrome P450 2A6) | Ki (Cytochrome P450 2A6) | IC50 [4] | Ki [4] | IC50 (Cytochrome P450 2D6) | Ki (Cytochrome P450 2D6) | IC50 [5]

O=c1cnn([C@@H]2O[C@H](CO)[C@@H](O)[C@H]2O)c(=O)[nH]1 [6-AZAURIDINE]
Not Active: IC50 [1] | Ki [1] | IC50 [2] | IC50 [3] | IC50 (Cytochrome P450 2A6) | Ki (Cytochrome P450 2A6) | IC50 [4] | Ki [4] | IC50 (Cytochrome P450 2D6) | Ki (Cytochrome P450 2D6) | IC50 [5]

CC[C@H](C)[C@H]1O[C@]2(C=C[C@@H]1C)C[C@@H]1C[C@@H](C/C=C(\C)[C@@H](O[C@H]3C[C@H](OC)[C@@H](O[C@H]4C[C@H](OC)[C@@H](O)[C@H](C)O4)[C@H](C)O3)[C@@H](C)/C=C/C=C3\CO[C@@H]4[C@H](O)C(C)=C[C@@H](C(=O)O1)[C@]34O)O2.CO[C@H]1C[C@H](O[C@H]2[C@H](C)O[C@@H](O[C@@H]3/C(C)=C/C[C@@H]4C[C@@H](C[C@]5(C=C[C@H](C)[C@@H](C(C)C)O5)O4)OC(=O)[C@@H]4C=C(C)[C@@H](O)[C@H]5OC/C(=C\C=C\[C@@H]3C)[C@]54O)C[C@@H]2OC)O[C@@H](C)[C@@H]1O [ABAMECTIN]
Not Active: IC50 [1] | Ki [1] | IC50 [2] | IC50 [3] | IC50 (Cytochrome P450 2A6) | Ki (Cytochrome P450 2A6) | IC50 [4] | Ki [4] | IC50 (Cytochrome P450 2D6) | Ki (Cytochrome P450 2D6) | IC50 [5]

NCCCC(O)(P(=O)(O)O)P(=O)(O)O [ALENDRONIC ACID]
Not Active: IC50 [1] | Ki [1] | IC50 [2] | IC50 [3] | IC50 (Cytochrome P450 2A6) | Ki (Cytochrome P450 2A6) | IC50 [4] | Ki [4] | IC50 [5]

CN1[C@@H]2CC[C@H]1C[C@@H](OC(=O)C(CO)c1ccccc1)C2 (stereo partly drawn) [ATROPINE]
Not Active: IC50 [1] | Ki [1] | IC50 [3] | IC50 (Cytochrome P450 2A6) | Ki (Cytochrome P450 2A6) | IC50 [4] | Ki [4]

COc1ccc2cc3[n+](cc2c1OC)CCc1cc2c(cc1-3)OCO2.[Cl-] [BERBERINE CHLORIDE]
Not Active: IC50 [1] | Ki [1] | IC50 [2] | IC50 [3] | IC50 (Cytochrome P450 2A6) | Ki (Cytochrome P450 2A6) | IC50 [4] | Ki [4] | IC50 [5]

Cc1cc2c(OCC(CNC(C)(C)C)OC(=O)c3ccccc3)cccc2[nH]1 (stereo not drawn) [BOPINDOLOL]
Not Active: IC50 [1] | Ki [1] | IC50 [2] | IC50 [3] | IC50 (Cytochrome P450 2A6) | Ki (Cytochrome P450 2A6) | IC50 [4] | Ki [4] | IC50 [5]

COc1cc(N)c(Cl)cc1C(=O)NC1CCN(CCCOc2ccc(F)cc2)CC1OC (stereo not drawn) [CISAPRIDE]
Not Active: IC50 [1] | Ki [1] | IC50 [3] | IC50 (Cytochrome P450 2A6) | Ki (Cytochrome P450 2A6) | IC50 [4] | Ki [4] | IC50 [5]
